Target: T1, sGC α1/β1 heterodimer stably expressed in CHO-K1 cells (CHO-K1/sGC) (Homo sapiens, UniProt Q02108+Q02153)
T1 construct: expressed in transfected cells
T1 sequence (Q02108 1-690): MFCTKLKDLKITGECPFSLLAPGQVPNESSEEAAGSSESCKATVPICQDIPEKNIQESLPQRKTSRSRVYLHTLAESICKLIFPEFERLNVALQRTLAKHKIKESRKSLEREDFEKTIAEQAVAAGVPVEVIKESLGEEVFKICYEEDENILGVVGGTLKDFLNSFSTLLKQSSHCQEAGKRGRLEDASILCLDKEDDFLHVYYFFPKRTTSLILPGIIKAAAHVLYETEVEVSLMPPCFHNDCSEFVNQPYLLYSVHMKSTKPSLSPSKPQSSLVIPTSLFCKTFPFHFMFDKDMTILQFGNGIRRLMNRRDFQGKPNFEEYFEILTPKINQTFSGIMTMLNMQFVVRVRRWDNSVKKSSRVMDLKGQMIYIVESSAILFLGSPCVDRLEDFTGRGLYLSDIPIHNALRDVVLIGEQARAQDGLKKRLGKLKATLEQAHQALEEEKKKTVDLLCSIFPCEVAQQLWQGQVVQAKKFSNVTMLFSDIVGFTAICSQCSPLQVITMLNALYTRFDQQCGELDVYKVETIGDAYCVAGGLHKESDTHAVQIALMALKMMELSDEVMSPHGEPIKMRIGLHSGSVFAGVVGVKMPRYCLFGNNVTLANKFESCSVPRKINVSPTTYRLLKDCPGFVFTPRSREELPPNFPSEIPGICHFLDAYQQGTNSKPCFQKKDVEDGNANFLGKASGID
T1 sequence (Q02153 1-619): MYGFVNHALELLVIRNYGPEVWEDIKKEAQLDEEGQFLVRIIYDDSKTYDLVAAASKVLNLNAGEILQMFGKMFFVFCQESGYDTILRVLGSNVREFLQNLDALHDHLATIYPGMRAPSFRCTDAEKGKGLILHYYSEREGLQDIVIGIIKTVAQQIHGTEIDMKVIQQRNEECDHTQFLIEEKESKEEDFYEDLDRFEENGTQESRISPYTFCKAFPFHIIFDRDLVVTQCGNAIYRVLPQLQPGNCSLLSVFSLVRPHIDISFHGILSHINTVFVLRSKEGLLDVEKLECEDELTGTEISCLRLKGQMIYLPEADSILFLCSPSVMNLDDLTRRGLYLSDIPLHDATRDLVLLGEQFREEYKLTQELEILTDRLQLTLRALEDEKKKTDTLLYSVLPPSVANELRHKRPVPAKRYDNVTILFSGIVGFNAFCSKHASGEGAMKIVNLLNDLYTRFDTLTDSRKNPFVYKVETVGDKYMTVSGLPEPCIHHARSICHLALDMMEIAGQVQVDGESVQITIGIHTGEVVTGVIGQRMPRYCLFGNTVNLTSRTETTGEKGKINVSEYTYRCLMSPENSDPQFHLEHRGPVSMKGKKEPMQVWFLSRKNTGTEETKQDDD
Test: Cell-based sGC Functional Assay (CASA Assay)
Settings: for Emax: CHO-K1, activation as percentage of maximum cGMP production of Compound A (set to 100%), read-out: % Act.; for EC50: inflection point of cGMP generation in CHO-K1/sGC cells, 4P fit, 1 hr at 37° C., read-out: IP
Outline: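 CHO-K1 cells stably expressing human sGC α1/β1 were incubated with compound for 1 h at 37 °C in buffer with 0.5 mM IBMX and 2.5% DMSO, with or without 1 μM DETA-NO. Intracellular cGMP was read by HTRF and expressed as percentage of maximal activation by reference activator Compound A. Values came from a 4-parameter fit.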

| Emax [%] | EC50 [nM] | Compound |
| --- | --- | --- |
| 88 | 435 | Cn1cc(C2(C)C(=O)Nc3nc(-c4nc(CCC(F)(F)C(F)(F)F)nc5c4cnn5C)nc(N)c32)cn1 (stereo not shown) [Example 23, 4-Amino-5-methyl-5-(1-methyl-1H-pyrazol-4-yl)-2-(1-methyl-6-(3,3,4,4,4-pentafluorobutyl)-1H-pyrazolo[3,4-d]pyrimidin-4-yl)-5,7-dihydro-6H-pyrrolo[2,3-d]pyrimidin-6-one] |
| 84 | 885 | [2H]C([2H])([2H])n1ncc2c(-c3nc(N)c4c(n3)NC(=O)C4(c3cnn(C)c3)C3CC3)nc(CCC(F)(F)C(F)(F)F)nc21 (stereo not shown) [Example 24, 4-Amino-5-cyclopropyl-5-(1-methyl-1H-pyrazol-4-yl)-2-(1-(methyl-d3)-6-(3,3,4,4,4-pentafluorobutyl)-1H-pyrazolo[3,4-d]pyrimidin-4-yl)-5,7-dihydro-6H-pyrrolo[2,3-d]pyrimidin-6-one] |
| 72 | 230 | CC(C)n1cc(C2(C3CC3)C(=O)Nc3nc(-c4nc(CCC(F)(F)C(F)(F)F)nc5c4cnn5C)nc(N)c32)cn1 (stereo not shown) [Example 26, 4-Amino-5-cyclopropyl-5-(1-isopropyl-1H-pyrazol-4-yl)-2-(1-methyl-6-(3,3,4,4,4-pentafluorobutyl)-1H-pyrazolo[3,4-d]pyrimidin-4-yl)-5,7-dihydro-6H-pyrrolo[2,3-d]pyrimidin-6-one] |
| 126 | 891 | Cn1ncc2c(-c3nc(N)c4c(n3)NC(=O)C4(c3ncco3)C3CC3)nc(CCC(F)(F)C(F)(F)F)nc21 (stereo not shown) [Example 28, 4-Amino-5-cyclopropyl-2-(1-methyl-6-(3,3,4,4,4-pentafluorobutyl)-1H-pyrazolo[3,4-d]pyrimidin-4-yl)-5-(oxazol-2-yl)-5,7-dihydro-6H-pyrrolo[2,3-d]pyrimidin-6-one] |
| 121 | 230 | Cn1ncc2c(-c3nc(N)c4c(n3)NC(=O)C4(C)c3ccc(F)cn3)nc(CCC3CC(F)(F)C3)nc21 (stereo not shown) [Example 29, 4-Amino-2-(6-(2-(3,3-difluorocyclobutyl)ethyl)-1-methyl-1H-pyrazolo[3,4-d]pyrimidin-4-yl)-5-(5-fluoropyridin-2-yl)-5-methyl-5,7-dihydro-6H-pyrrolo[2,3-d]pyrimidin-6-one] |
| 98 | 35 | Cn1ncc2c(-c3nc(N)c4c(n3)NC(=O)C4(C)c3ccc(F)cn3)nc(CCC3CCC3)nc21 (stereo not shown) [Example 30, 4-Amino-2-(6-(2-cyclobutylethyl)-1-methyl-1H-pyrazolo[3,4-d]pyrimidin-4-yl)-5-(5-fluoropyridin-2-yl)-5-methyl-5,7-dihydro-6H-pyrrolo[2,3-d]pyrimidin-6-one] |
| 169 | 44 | Cn1ncc2c(-c3nc(N)c4c(n3)NC(=O)C4(c3ccc(Cl)cn3)C3CC3)nc(CC3CC(F)(F)C3)nc21 (stereo not shown) [Example 31, 4-Amino-5-(5-chloropyridin-2-yl)-5-cyclopropyl-2-(6-((3,3-difluorocyclobutyl)methyl)-1-methyl-1H-pyrazolo[3,4-d]pyrimidin-4-yl)-5,7-dihydro-6H-pyrrolo[2,3-d]pyrimidin-6-one] |
| 113 | 59 | Cn1ncc2c(-c3nc(N)c4c(n3)NC(=O)C4(c3ccc(C(F)(F)F)cn3)C3CC3)nc(CC3CC(F)(F)C3)nc21 (stereo not shown) [Example 32, 4-Amino-5-cyclopropyl-2-(6-((3,3-difluorocyclobutyl)methyl)-1-methyl-1H-pyrazolo[3,4-d]pyrimidin-4-yl)-5-(5-(trifluoromethyl)pyridin-2-yl)-5,7-dihydro-6H-pyrrolo[2,3-d]pyrimidin-6-one] |
| 104 | 32 | COc1ccc(C2(C)C(=O)Nc3nc(-c4nc(CC5CC(F)(F)C5)nc5c4cnn5C)nc(N)c32)nc1 (stereo not shown) [Example 33, 4-Amino-2-(6-((3,3-difluorocyclobutyl)methyl)-1-methyl-1H-pyrazolo[3,4-d]pyrimidin-4-yl)-5-(5-methoxypyridin-2-yl)-5-methyl-5,7-dihydro-6H-pyrrolo[2,3-d]pyrimidin-6-one] |
| 109 | 44 | CCCCc1nc(-c2nc(N)c3c(n2)NC(=O)C3(C)c2ccc(F)cn2)c2cnn(C)c2n1 (stereo not shown) [Example 34, 4-Amino-2-(6-butyl-1-methyl-1H-pyrazolo[3,4-d]pyrimidin-4-yl)-5-(5-fluoropyridin-2-yl)-5-methyl-5,7-dihydro-6H-pyrrolo[2,3-d]pyrimidin-6-one] |
| 88 | 96 | CCCCc1nc(-c2nc(N)c3c(n2)NC(=O)C3(C)c2ccc(C(C)C)cn2)c2cnn(C)c2n1 (stereo not shown) [Example 35, 4-Amino-2-(6-butyl-1-methyl-1H-pyrazolo[3,4-d]pyrimidin-4-yl)-5-(5-isopropylpyridin-2-yl)-5-methyl-5,7-dihydro-6H-pyrrolo[2,3-d]pyrimidin-6-one] |
| 192 | 41 | Cn1ncc2c(-c3nc(N)c4c(n3)NC(=O)C4(C)c3ccc(Cl)cn3)nc(CC3CC(F)(F)C3)nc21 (stereo not shown) [Example 37, 4-Amino-5-(5-chloropyridin-2-yl)-2-(6-((3,3-difluorocyclobutyl)methyl)-1-methyl-1H-pyrazolo[3,4-d]pyrimidin-4-yl)-5-methyl-5,7-dihydro-6H-pyrrolo[2,3-d]pyrimidin-6-one] |
| 115 | 150 | [2H]C([2H])([2H])n1ncc2c(-c3nc(N)c4c(n3)NC(=O)C4(C)c3nnc(C4CC4)o3)nc(CCC(F)(F)C(F)(F)F)nc21 (stereo not shown) [Example 39, 4-Amino-5-(5-cyclopropyl-1,3,4-oxadiazol-2-yl)-5-methyl-2-(1-(methyl-d3)-6-(3,3,4,4,4-pentafluorobutyl)-1H-pyrazolo[3,4-d]pyrimidin-4-yl)-5,7-dihydro-6H-pyrrolo[2,3-d]pyrimidin-6-one] |
| 120 | 887 | [2H]C([2H])([2H])n1ncc2c(-c3nc(N)c4c(n3)NC(=O)C4(CC)c3nnc(C4CC4)o3)nc(CCC(F)(F)C(F)(F)F)nc21 (stereo not shown) [Example 42, 4-Amino-5-(5-cyclopropyl-1,3,4-oxadiazol-2-yl)-5-ethyl-2-(1-(methyl-d3)-6-(3,3,4,4,4-pentafluorobutyl)-1H-pyrazolo[3,4-d]pyrimidin-4-yl)-5,7-dihydro-6H-pyrrolo[2,3-d]pyrimidin-6-one] |
| 143 | 825 | [2H]C([2H])([2H])n1ncc2c(-c3nc(N)c4c(n3)NC(=O)C4(c3nnc(C4CC4)o3)C3CC3)nc(CCCC(F)(F)F)nc21 (stereo not shown) [Example 43, 4-Amino-5-cyclopropyl-5-(5-cyclopropyl-1,3,4-oxadiazol-2-yl)-2-(1-(methyl-d3)-6-(4,4,4-trifluorobutyl)-1H-pyrazolo[3,4-d]pyrimidin-4-yl)-5,7-dihydro-6H-pyrrolo[2,3-d]pyrimidin-6-one] |
| 101 | 738 | CCn1ncc2c(-c3nc(N)c4c(n3)NC(=O)C4(c3nnc(C4CC4)o3)C3CC3)nc(CCC(F)(F)C(F)(F)F)nc21 (stereo not shown) [Example 45, 4-Amino-5-cyclopropyl-5-(5-cyclopropyl-1,3,4-oxadiazol-2-yl)-2-(1-ethyl-6-(3,3,4,4,4-pentafluorobutyl)-1H-pyrazolo[3,4-d]pyrimidin-4-yl)-5,7-dihydro-6H-pyrrolo[2,3-d]pyrimidin-6-one] |
| 97 | 258 | [2H]C([2H])([2H])n1ncc2c(-c3nc(N)c4c(n3)NC(=O)C4(c3nnc(C4CCC4)o3)C3CC3)nc(CCC(F)(F)C(F)(F)F)nc21 (stereo not shown) [Example 46, 4-Amino-5-(5-cyclobutyl-1,3,4-oxadiazol-2-yl)-5-cyclopropyl-2-(1-(methyl-d3)-6-(3,3,4,4,4-pentafluorobutyl)-1H-pyrazolo[3,4-d]pyrimidin-4-yl)-5,7-dihydro-6H-pyrrolo[2,3-d]pyrimidin-6-one] |
